Counter-ions that a name gives are not always drawn.
The molecules below were run on BLT1 and BLT2 receptors (assay: Ca2+ Flux Assay for LTB4 Antagonist Assay). Details: inhibition of LTB4-induced Ca2+ flux (FLIPR), Retinoic Acid induced HL-60 cells endogenously expressing BLT1 and BLT2.
Format: cell-based, Human
Description: Ca^2+ Flux Assay for LTB4 Antagonist Assay
Seventy two hours prior to experiment cells are counted using ViaCount reagent, centrifuged and resuspended at 2.0×10^5 cells /ml density with the complete growth media containing 1 μM Retinoic Acid (Sigma).
On a day of the experiment loading buffer (Calcium-3 Assay Kit, Molecular Devices) was prepared by dissolving the contents of one vial (Express Kit) into 500 ml Hank's Balanced Salt Solution containing 20 mM HEPES and 5 mM probenecid. Equal volume of the loading buffer was mixed with the replacement buffer (Hank's Balanced Salt Solution containing 20 mM HEPES, 0.05% BSA and 5 mM probenecid). Retinoic Acid induced HL-60 cells were counted using ViaCount reagent, centrifuged and resuspended at 2.0×10^6 cells /ml density with the loading buffer/replacement buffer, dispensed into 384 well black/clear microplates (Falcon)(25 μl/well) and placed in a 37° C./5% CO2 incubator for 1 hour.
During the incubation, test compounds were prepared at 6× the desired concentration in HBSS/20 mM HEPES/0.05% BSA as well as LTB4 (Biomol) was prepared at 2.2× concentration in HBSS/20 mM HEPES/0.5% BSA buffer.
After the incubation, both the cell and compound plates were brought to the FLIPR and 5 μl of the diluted compounds were transferred to the cell plates by the FLIPR. Plates were then incubated for 30min at room temperature. After the ½ hour incubation, plates were returned to the FLIPR and 25 μl of 2.2× LTB4 was added to the cell plates. During the assay, fluorescence readings were taken simultaneously from all 384 wells of the cell plate every 1.5 seconds. Five readings were taken to establish a stable baseline, then 25 μl (LTB4) of sample was rapidly and simultaneously added to each well of the cell plate. The fluorescence was continuously monitored before, during and after sample addition for a total elapsed time of 100 seconds. Responses (increase in peak fluorescence) in each well following agonist addition was determined. The initial fluorescence reading from each well, prior to ligand stimulation, was used a zero baseline value for the data from that well. The responses are expressed as % inhibition of the neutral control (neutral control: wells that received buffer plus DMSO but no test compound).

Row | Compound | IC50 [nM]
1 | O=C(O)CCCOc1cccc(CCCCCCOc2cc(-c3cccc(F)c3)cc(-c3ccc4c(c3)OCO4)c2)c1CCC(=O)O [Example 17, 4-{3-[6-(5-Benzo[1,3]dioxol-5-yl-3′-fluoro-biphenyl-3-yloxy)-hexyl]-2-(2-carboxy-ethyl)-phenoxy}-butyric acid bis-sodium salt] | 1.19

Same assay, conditions: inhibition of LTB4-induced Ca2+ flux (FLIPR), Retinoic Acid induced HL-60 cells endogenously expressing BLT1 and BLT2; read-out: IC50

Row | IC50 [nM] | Compound
2 | 0.07 | O=C(O)CCCOc1cccc(CCCCCCOc2cc(-c3ccncc3)cc(-c3ccncc3)c2)c1CCC(=O)O [Example 1, 4-{2-(2-Carboxy-ethyl)-3-[6-(3,5-di-pyridin-4-yl-phenoxy)-hexyl]-phenoxy}-butyric acid]
3 | 0.21 | O=C(O)CCCOc1cccc(CCCCCCOc2cc(-c3ccccc3)cc(-c3ccccc3)c2)c1CCC(=O)O [Example 2, 4-{2-(2-Carboxy-ethyl)-3-[6-([1,1′,3,1″]terphenyl-5′-yloxy)-hexyl]-phenoxy}-butyric acid]
4 | 0.17 | O=C(O)CCCOc1cccc(CCCCCCOc2cc(-c3ccnc(F)c3)cc(-c3ccnc(F)c3)c2)c1CCC(=O)O [Example 3, 4-[3-{6-[3,5-Bis-(2-fluoro-pyridin-4-yl)-phenoxy]-hexyl}-2-(2-carboxy-ethyl)-phenoxy]-butyric acid]
5 | 0.64 | O=C(O)CCCOc1cccc(CCCCCCOc2cc(-c3cccnc3)cc(-c3cccnc3)c2)c1CCC(=O)O [Example 4, 4-{2-(2-Carboxy-ethyl)-3-[6-(3,5-di-pyridin-3-yl-phenoxy)-hexyl]-phenoxy}-butyric acid]
6 | 75 | O=C(O)CCCOc1cccc(CCCCCCSc2cc(-c3ccccc3)cc(-c3ccccc3)c2)c1CCC(=O)O [Example 7, 4-{2-(2-Carboxy-ethyl)-3-[6-([1,1′;3′,1″]terphenyl-5′-ylsulfanyl)-hexyl]-pheoxy}-butyric acid]
7 | 0.21 | O=C(O)CCCOc1cccc(CCCCCCOc2cc(-c3ccsc3)cc(-c3ccc4c(c3)OCO4)c2)c1CCC(=O)O [Example 12, 4-{3-[6-(3-Benzo[1,3]dioxol-5-yl-5-thiophen-3-yl-phenoxy)-hexyl]-2-(2-carboxy-ethyl)-phenoxy}-butyric acid]
8 | 0.36 | O=C(O)CCCOc1cccc(CCCCCCOc2cc(-c3ccccc3)cc(-c3ccsc3)c2)c1CCC(=O)O [Example 13, 4-{2-(2-Carboxy-ethyl)-3-[6-(5-thiophen-3-yl-biphenyl-3-yloxy)-hexyl]-phenoxy}-butyric acid]
9 | 0.2 | O=C(O)CCCOc1cccc(CCCCCCOc2cc(-c3ccncc3)cc(-c3ccsc3)c2)c1CCC(=O)O [Example 14, 4-{2-(2-Carboxy-ethyl)-3-[6-(3-pyridin-4-yl-5-thiophen-3-yl-phenoxy)-hexyl]-phenoxy}-butyric acid]
10 | 0.57 | O=C(O)CCCOc1cccc(CCCCCCOc2cc(-c3ccsc3)cc(-c3ccnc(Cl)c3)c2)c1CCC(=O)O [Example 15]
11 | 0.39 | O=C(O)CCCOc1cccc(CCCCCCOc2cc(-c3cncnc3)cc(-c3ccsc3)c2)c1CCC(=O)O [Example 16, 4-{2-(2-Carboxy-ethyl)-3-[6-(3-pyrimidin-5-yl-5-thiophen-3-yl-phenoxy)-hexyl]-phenoxy}-butyric acid]
12 | 0.18 | O=C(O)CCCOc1cccc(CCCCCCOc2cc(-c3ccncc3)cc(-c3cccc(F)c3)c2)c1CCC(=O)O [Example 18, 4-{2-(2-Carboxy-ethyl)-3-[6-(3′-fluoro-5-pyridin-4-yl-biphenyl-3-yloxy)-hexyl]-phenoxy}-butyric acid]
13 | 0.21 | O=C(O)CCCOc1cccc(CCCCCCOc2cc(-c3ccncc3)cc(-c3ccc4c(c3)OCO4)c2)c1CCC(=O)O [Example 20, 4-{3-[6-(3-Benzo[1,3]dioxol-5-yl-5-pyridin-4-yl-phenoxy)-hexyl]-2-(2-carboxy-ethyl)-phenoxy}-butyric acid]
14 | 0.23 | O=C(O)CCCOc1cccc(CCCCCCOc2cc(-c3ccncc3)cc(-c3ccc4c(c3)OCCO4)c2)c1CCC(=O)O [Example 24, 4-(2-(2-Carboxy-ethyl)-3-{6-[3-(2,3-dihydro-benzo[1,4]dioxin-6-yl)-5-pyridin-4-yl-phenoxy]-hexyl}-phenoxy)-butyric acid]
15 | 0.97 | O=C(O)CCCOc1cccc(CCCCCCOc2cc(-c3ccccn3)cc(-c3ccccn3)c2)c1CCC(=O)O [Example 26, 4-(2-(2-Carboxy-ethyl)-3-{6-[3,5-di-pyridin-2-yl-phenoxy]-hexyl}-phenoxy)-butyric acid]
16 | 99.4 | Cc1cc(C(F)(F)F)c(-c2cc(OCCCCCCc3cccc(OCCCC(=O)O)c3CCC(=O)O)cc(-c3ccsc3)c2)c(=O)n1C [Example 28, 4-(2-(2-Carboxy-ethyl)-3-{6-[3-(1,6-dimethyl-2-oxo-4-trifluoromethyl-1,2-dihydro-pyridin-3-yl)-5-thiophen-3-yl-phenoxy]-hexyl}-phenoxy)-butyric acid]
17 | 99.1 | O=C(O)CCCOc1cccc(CCCCCCNc2cc(-c3ccsc3)cc(-c3ccsc3)c2)c1CCC(=O)O [Example 35, 4-{2-(2-Carboxy-ethyl)-3-[6-(3,5-di-thiophen-3-yl-phenylamino)-hexyl]-phenoxy}-butyric acid]
18 | 2.69 | O=C(O)CCCOc1cccc(CCCCCC#Cc2cc(-c3ccccc3)cc(-c3ccccc3)c2)c1CCC(=O)O [Example 48, 4-[2-(2-Carboxy-ethyl)-3-(7-[1,1′;3′,1″]terphenyl-5′-yl-hept-6-ynyl)-phenoxy]-butyric acid]
19 | 42.5 | O=C(O)CCCOc1cccc(CCCCCCCc2cc(-c3ccc4c(c3)OCO4)cc(-c3ccc4c(c3)OCO4)c2)c1CCC(=O)O [Example 52, 4-[3-[7-(3,5-Bis-benzo[1,3]dioxol-5-yl-phenyl)-heptyl]-2-(2-carboxy-ethyl)-phenoxy]-butyric acid]
20 | 0.58 | O=C(O)CCCOc1cccc(CCCCCCOc2cc(-c3ccsc3)cc(-c3ccsc3)c2)c1CCC(=O)O [Example 56, 4-{2-(2-Carboxy-ethyl)-3-[6-(3,5-di-thiophen-3-yl-phenoxy)-hexyl]-phenoxy}-butyric acid]
21 | 59.8 | CN(C)c1ccc(-c2cc(OCCCCCCc3cccc(OCCCC(=O)O)c3CCC(=O)O)cc(-c3ccc(Cl)c(F)c3)c2)cc1 [Example 63, 4-{2-(2-Carboxy-ethyl)-3-[6-(4-chloro-4″-dimethylamino-3-fluoro-[1,1′;3′,1″]terphenyl-5′-yloxy)-hexyl]-phenoxy}-butyric acid]
22 | 0.47 | Cc1cc(-c2cc(OCCCCCCc3cccc(OCCCC(=O)O)c3CCC(=O)O)cc(-c3ccc(N(C)C)cc3)c2)ccc1F [Example 65, 4-{2-(2-Carboxy-ethyl)-3-[6-(4″-dimethylamino-4-fluoro-3-methyl-[1,1′;3′,1″]terphenyl-5′-yloxy)-hexyl]-phenoxy}-butyric acid]
23 | 0.58 | O=C(O)CCCOc1cccc(CCCCCCOc2cc(-c3ccccc3)cc(-c3ccc(OC(F)(F)F)cc3)c2)c1CCC(=O)O [Example 70]
24 | 0.61 | COc1ccc(-c2cc(OCCCCCCc3cccc(OCCCC(=O)O)c3CCC(=O)O)cc(-c3ccc(OC)cc3)c2)cc1 [Example 88, 4-{2-(2-Carboxy-ethyl)-3-[6-(4,4″-dimethoxy-[1,1′;3′,1″]terphenyl-5′-yloxy)-hexyl]-phenoxy}-butyric acid]
25 | 0.25 | O=C(O)CCCOc1cccc(CCCCCCOc2cc(-c3ccccc3)cc(-c3ccccc3F)c2)c1CCC(=O)O [Example 97, 4-{2-(2-Carboxy-ethyl)-3-[6-(2-fluoro-[1,1′;3′,1″]terphenyl-5′-yloxy)-hexyl]-phenoxy}-butyric acid]

From US8093385B2, “Leukotriene B4 inhibitors” (Hoffmann-La Roche Inc., priority 2007, dated 2012)
